Values after ≈ are worked out from the molar mass of the structure shown.
How the values were obtained:
E. coli ATCC 25922 [1] = assay: Membrane integrity, propidium iodide influx assay (SYTO 9/PI); format: cell-based, Escherichia coli; settings: 0, 1, 18 h
Experimental: The influx of PI in E. coli ATCC 25922 treated with 2×MIC, MIC, and ½×MIC of compound 1 was evaluated using a commercial kit that includes fluorescent nucleic acid stains SYTO® 9 and PI. SYTO® 9 can enter cells with intact or damaged membranes, generally labeling both, whereas PI only penetrates cells with severe membrane lesions, causing a reduction in SYTO® 9 fluorescence when both dyes are present.
In these assays, COL and AMP were used as controls. COL is a polycationic antimicrobial peptide with a complex mode of action, that ultimately solubilizes the bacterial cell membrane. AMP is an aminopenicillin that inhibits cell wall synthesis by inhibiting penicillin-binding proteins. E. coli ATCC 25922 cells were treated with compound 1 and, at several time-points (0, 1, and 18 h), samples were taken, and SYTO® 9/PI ratio was determined ([FIG. 4]). The entrance of PI is reflected in a reduction of this ratio.
Briefly, E. coli ATCC 25922 colonies from overnight cultures in MHA were suspended in CAMHB to prepare an inoculum with a final concentration of approximately 5×10^5 CFU/mL. The tubes were incubated overnight at 36° C. in a water bath with shaking. Following this, the cell suspensions were centrifuged at 3500 rpm for 15 min, the supernatant was removed, the cells were carefully resuspended in fresh CAMHB and the suspension was adjusted to 0.5 McFarland. An aliquot of this suspension was then added to each tube of CAMHB alone (control) or CAMHB plus an appropriate amount of test compound. […] The tubes were incubated at 36 degrees C. in a water bath with shaking and, at pre-established time points (0, 1, and 18 h), […] aliquots were retrieved for further analysis. After the exposure time, cells were washed two times, resuspended in 0.85% NaCl, and 100 μL of each cell suspension was distributed in the wells of a microtiter plate, in triplicate. 100 μL of a mixture of 30 μM PI and 5 μM SYTO® 9 prepared in ultrapure water were added to each well, and the plates were incubated at room temperature, in the dark, for 15 min. The fluorescence intensity of the stained bacterial suspensions was determined using a microplate reader (Synergy HT, BioTek Instruments, Winooski, VT, USA) by two consecutive measurements with excitation wavelength 485 nm and emission wavelength 528 nm (SYTO® 9) or 590 nm (PI). Data were analyzed by subtracting background fluorescence from each sample, dividing the fluorescence intensity of SYTO® 9 by fluorescence intensity of PI, and the results are presented as a percentage of control. Three independent assays were performed in triplicate for each experimental condition.

[2] = test system: Escherichia coli ATCC 25922; assay: Antibacterial MIC/MBC (broth microdilution); format: cell-based; settings: Escherichia coli ATCC 25922
Source text: Twelve reference bacterial strains and nine MDR clinically relevant bacterial strains were used in this study. Gram-negative bacteria comprised reference strains E. coli ATCC 25922, K. pneumoniae ATCC 13883, Salmonella enterica serovar Typhimurium CECT 443, P. aeruginosa ATCC 27853, A. baumannii ATCC 19606, C. jejuni ATCC 33560 (ATCC—American Type Culture Collection; CECT—Colección Espanola de Cultivos Tipo); clinical isolates E. coli SA/2, an extended-spectrum β-lactamase (ESBL)-producing strain and P. aeruginosa 33b, a pan-drug-resistant isolate; and animal isolates C. jejuni P5/4, a ciprofloxacin-resistant strain, C. jejuni 4432, C. jejuni 4433, C. jejuni 4448, and E. coli 2252, a COL-resistant strain [42]. Gram-positive strains included S. aureus ATCC 29213, E. faecalis ATCC 29212, S. pyogenes ATCC 19615, and environmental isolates methicillin-resistant S. aureus (MRSA) 66/1 [43], and VAN-resistant enterococci (VRE) E. faecalis B3/101 [44]. Gram-negative fish pathogens Yersinia ruckeri ATCC 29473, Listonella anguillarum ATCC 1924, and Tenacibaculum maritimum ATCC 43397 were also included.
Strains were kept in Trypto-Casein Soy agar (TSA—Biokar Diagnostics, Allone, Beauvais, France) slants and, before each assay, were sub-cultured in Mueller-Hinton agar (MHA—Biokar Diagnostics, Allone, Beauvais, France). Y. ruckeri ATCC 29473 and L. anguillarum ATCC 1924 were kept in Nutrient Agar (Condalab, Madrid, Spain) and T. maritimum ATCC 43397 was kept in TMM agar (Condalab, Madrid, Spain), and were sub-cultured in the respective culture media before each assay. For S. pyogenes ATCC 19615, CAMHB was supplemented with 3.75% lysed horse blood (LBH—Oxoid, Basingstoke, England), whereas for C. jejuni it was supplemented with 2.5% LHB. Colony-forming unit counts of the inoculum were conducted to determine the initial inoculum size (which should be approximately 5×10^5 CFU/mL). Sterility and growth controls were included in each assay. The 96-well U-shaped untreated polystyrene microtiter plates were incubated for 20 h at 37 degrees C. (42 degrees C. for C. jejuni, in a microaerophilic atmosphere) and the minimal inhibitory concentration (MIC) was determined as the lowest concentration of compound that prevented visible growth. The minimal bactericidal concentration (MBC) was determined by spreading 100 μL of the content of the wells with no visible growth on MH plates. The MBC was determined as the lowest concentration of compound that killed 99.9% of the initial inoculum after overnight incubation at 37 degrees C. Two independent assays were performed for reference and MDR strains.
An initial screening of the antibacterial activity of the compounds was performed by the Kirby-Bauer disk diffusion method, as recommended by the Clinical and Laboratory Standards Institute (CLSI). Briefly, sterile 6 mm blank paper disks (Oxoid, Basingstoke, England) impregnated with 15 μg of each compound were placed on inoculated MH agar plates. A blank disk with dimethylsulfoxide (DMSO) was used as a negative control. MH inoculated plates were incubated for 18-20 h at 37 degrees C. At the end of incubation, the inhibition halos where measured. The MIC was used to determine the antibacterial activity of each compound, in accordance with the recommendations of the CLSI. Two-fold serial dilutions of the compounds were prepared in Mueller-Hinton Broth 2 (MHB2—Sigma-Aldrich, St. Louis, MO, USA) within the concentration range of 0.062-64 μg/mL. CTX ranging between 0.031-16 μg/mL was used as a control. Sterility and growth controls were included in each assay. Purity checks and colony counts of the inoculum suspensions were also performed in order to ensure that the final inoculum density closely approximates the intended number (5×10^5 CFU/mL). The MIC was determined as the lowest concentration of compound that inhibited growth of the bacteria. The MBC was assessed by spreading 10 μL of culture collected from wells showing no visible growth on MH agar plates. […]

E. coli ATCC 25922 [3] = assay: Enzymatic/metabolic activity, MTT assay; format: cell-based, Escherichia coli; settings: 0, 1, 18 h
Experimental: To determine whether compound 1 could also affect enzymatic activity, 2-(4,5-dimethyl-2-thiazolyl)-3,5-diphenyl-2H-tetrazolium bromide (MTT) assay was performed. This assay can also be used as an indirect measure of cellular viability, as tetrazolium salts are reduced to purple formazan by metabolically active cells. E. coli ATCC 25922 cells were treated with compound 1 and COL and AMP were used as controls, as described above. Measurements were made at 0, 1, and 18 h.
Enzymatic activity was evaluated by the MTT assay, as previously described, with some modifications. Cell suspensions of E. coli ATCC 25922 were prepared as described above, as well as test conditions and controls. At each time point (0, 1, and 18 h), 500 μL aliquots were collected, centrifuged at 3500 rpm for 10 min, the supernatant was removed, and 300 μL of MTT solution (0.5 mg/mL in CAMHB, at 36 degrees C.) (Thiazolyl Blue Tetrazolium Bromide, Alfa Aesar, Ward Hill, MA, USA) were added. After a 30 min incubation at 36° C., the insoluble formazan product resulting from the conversion of MTT by metabolically active cells was solubilized with 300 μL of DMSO. 100 μL of each sample were transferred in duplicate to the wells of a microtiter plate and the extent of the reduction of MTT to formazan was quantified by measuring the absorbance at 570 nm (Thermo Scientific Multiskan® EX, Thermo Fisher Scientific, Waltham, MA, USA). Three independent assays were performed in duplicate, and results are expressed as a percentage of untreated control.

Compound	reduction in SYTO 9/PI ratio vs untreated control (E. coli ATCC 25922 [1]; 4 μg/mL)	MIC [2]	metabolic activity (MTT) vs untreated control (E. coli ATCC 25922 [3]; 4 μg/mL)	reduction in SYTO 9/PI ratio vs untreated control (E. coli ATCC 25922 [1]; 1 μg/mL)	reduction in SYTO 9/PI ratio vs untreated control (E. coli ATCC 25922 [1]; 8 μg/mL)	metabolic activity (MTT) vs untreated control (E. coli ATCC 25922 [3]; 1 μg/mL)	metabolic activity (MTT) vs untreated control (E. coli ATCC 25922 [3]; 8 μg/mL)
CC1(C)S[C@@H]2[C@H](NC(=O)[C@H](N)c3ccccc3)C(=O)N2[C@H]1C(=O)O [AMP]	not	4 µg/mL (≈ 11.4 µM)	did not affect the metabolic activity	–	–	–	–
colistin	–	1 µg/mL	–	only a significant reduction at 1 h	statistically significant	only a significant reduction at 1 h	significant reduction of metabolic activity at all time points

— patent US20250002450A1, “CATIONIC STEROID COMPOUNDS, METHOD OF OBTAINING THEREOF, FORMULATIONS COMPRISING THEREOF AND THEIR USES” (UNIVERSIDADE DO PORTO, priority 2021, published 2025)
